ChEMBL document CHEMBL1671626, “In vitro profiling of ceftaroline against a collection of recent bacterial clinical isolates from across the United States” (2008)
In brackets after ≈: the same amount, converted by molar mass.

Experiments:
Assay type in all cases: functional
[1] = test system: Serratia marcescens; assay: Antibacterial activity against ceftazidime-susceptible Serratia marcescens assessed as susceptible isolates by CLSI M7-A7 broth microdilution method
[2] = test system: Enterobacteriaceae; assay: Antibacterial activity against ceftazidime-nonsusceptible Enterobacteriaceae assessed as resistant isolates by CLSI M7-A7 broth microdilution method
[3] = test system: Klebsiella pneumoniae; assay: Antibacterial activity against ceftazidime-nonsusceptible Klebsiella pneumoniae by CLSI M7-A7 broth microdilution method
[4] = test system: Citrobacter freundii; assay: Antibacterial activity against ceftazidime-nonsusceptible Citrobacter freundii assessed as susceptible isolates by CLSI M7-A7 broth microdilution method
[5] = test system: Providencia sp.; assay: Antibacterial activity against ceftazidime-susceptible Providencia sp. assessed as resistant isolates by CLSI M7-A7 broth microdilution method
[6] = test system: Enterobacteriaceae; assay: Antibacterial activity against ceftazidime-susceptible Enterobacteriaceae assessed as resistant isolates by CLSI M7-A7 broth microdilution method
[7] = test system: Citrobacter freundii; assay: Antibacterial activity against ceftazidime-susceptible Citrobacter freundii by CLSI M7-A7 broth microdilution method
[8] = test system: Enterobacter cloacae; assay: Antibacterial activity against ceftazidime-susceptible Enterobacter cloacae assessed as susceptible isolates by CLSI M7-A7 broth microdilution method
[9] = test system: Morganella morganii; assay: Antibacterial activity against ceftazidime-susceptible Morganella morganii by CLSI M7-A7 broth microdilution method
[10] = test system: Proteus mirabilis; assay: Antibacterial activity against ceftazidime-susceptible Proteus mirabilis assessed as susceptible isolates by CLSI M7-A7 broth microdilution method
[11] = test system: Enterobacter cloacae; assay: Antibacterial activity against ceftazidime-nonsusceptible Enterobacter cloacae by CLSI M7-A7 broth microdilution method
[12] = test system: Enterobacter cloacae; assay: Antibacterial activity against ceftazidime-nonsusceptible Enterobacter cloacae assessed as susceptible isolates by CLSI M7-A7 broth microdilution method
[13] = test system: Haemophilus influenzae; assay: Antibacterial activity against beta lactamase-negative Haemophilus influenzae by CLSI M7-A7 broth microdilution method
[14] = test system: Citrobacter freundii; assay: Antibacterial activity against ceftazidime-nonsusceptible Citrobacter freundii by CLSI M7-A7 broth microdilution method
[15] = test system: Citrobacter freundii; assay: Antibacterial activity against ceftazidime-susceptible Citrobacter freundii assessed as susceptible isolates by CLSI M7-A7 broth microdilution method
[16] = test system: Providencia sp.; assay: Antibacterial activity against ceftazidime-susceptible Providencia sp. by CLSI M7-A7 broth microdilution method
[17] = test system: Serratia marcescens; assay: Antibacterial activity against ceftazidime-susceptible Serratia marcescens by CLSI M7-A7 broth microdilution method
[18] = test system: Citrobacter freundii; assay: Antibacterial activity against ceftazidime-nonsusceptible Citrobacter freundii assessed as resistant isolates by CLSI M7-A7 broth microdilution method
[19] = test system: Klebsiella pneumoniae; assay: Antibacterial activity against ceftazidime-susceptible Klebsiella pneumoniae assessed as resistant isolates by CLSI M7-A7 broth microdilution method
[20] = test system: Escherichia coli; assay: Antibacterial activity against ceftazidime-nonsusceptible Escherichia coli assessed as susceptible isolates by CLSI M7-A7 broth microdilution method
[21] = test system: Escherichia coli; assay: Antibacterial activity against ceftazidime-susceptible Escherichia coli assessed as resistant isolates by CLSI M7-A7 broth microdilution method
[22] = test system: Enterobacteriaceae; assay: Antibacterial activity against ceftazidime-nonsusceptible Enterobacteriaceae assessed as susceptible isolates by CLSI M7-A7 broth microdilution method
[23] = test system: Haemophilus influenzae; assay: Antibacterial activity against beta lactamase-negative Haemophilus influenzae assessed as susceptible isolates by CLSI M7-A7 broth microdilution method
[24] = test system: Enterobacter cloacae; assay: Antibacterial activity against ceftazidime-susceptible Enterobacter cloacae assessed as resistant isolates by CLSI M7-A7 broth microdilution method
[25] = test system: Escherichia coli; assay: Antibacterial activity against ceftazidime-susceptible Escherichia coli by CLSI M7-A7 broth microdilution method
[26] = test system: Escherichia coli; assay: Antibacterial activity against ceftazidime-susceptible Escherichia coli assessed as susceptible isolates by CLSI M7-A7 broth microdilution method
[27] = test system: Morganella morganii; assay: Antibacterial activity against ceftazidime-susceptible Morganella morganii assessed as susceptible isolates by CLSI M7-A7 broth microdilution method
[28] = test system: Enterobacter cloacae; assay: Antibacterial activity against ceftazidime-nonsusceptible Enterobacter cloacae assessed as resistant isolates by CLSI M7-A7 broth microdilution method
[29] = test system: Acinetobacter; assay: Antibacterial activity against imipenem-susceptible Acinetobacter by CLSI M7-A7 broth microdilution method
[30] = test system: Providencia sp.; assay: Antibacterial activity against ceftazidime-susceptible Providencia sp. assessed as susceptible isolates by CLSI M7-A7 broth microdilution method
[31] = test system: Enterobacteriaceae; assay: Antibacterial activity against ceftazidime-susceptible Enterobacteriaceae by CLSI M7-A7 broth microdilution method
[32] = test system: Klebsiella pneumoniae; assay: Antibacterial activity against ceftazidime-susceptible Klebsiella pneumoniae by CLSI M7-A7 broth microdilution method
[33] = test system: Escherichia coli; assay: Antibacterial activity against ceftazidime-nonsusceptible Escherichia coli by CLSI M7-A7 broth microdilution method
[34] = test system: Escherichia coli; assay: Antibacterial activity against ceftazidime-nonsusceptible Escherichia coli assessed as resistant isolates by CLSI M7-A7 broth microdilution method
[35] = test system: Haemophilus influenzae; assay: Antibacterial activity against beta lactamase-positive Haemophilus influenzae assessed as resistant isolates by CLSI M7-A7 broth microdilution method
[36] = test system: Klebsiella pneumoniae; assay: Antibacterial activity against ceftazidime-nonsusceptible Klebsiella pneumoniae assessed as susceptible isolates by CLSI M7-A7 broth microdilution method
[37] = test system: Proteus mirabilis; assay: Antibacterial activity against ceftazidime-susceptible Proteus mirabilis assessed as resistant isolates by CLSI M7-A7 broth microdilution method
[38] = test system: Klebsiella pneumoniae; assay: Antibacterial activity against ceftazidime-susceptible Klebsiella pneumoniae assessed as susceptible isolates by CLSI M7-A7 broth microdilution method
[39] = test system: Citrobacter freundii; assay: Antibacterial activity against ceftazidime-susceptible Citrobacter freundii assessed as resistant isolates by CLSI M7-A7 broth microdilution method
[40] = test system: Proteus mirabilis; assay: Antibacterial activity against ceftazidime-susceptible Proteus mirabilis by CLSI M7-A7 broth microdilution method
[41] = test system: Haemophilus influenzae; assay: Antibacterial activity against beta lactamase-positive Haemophilus influenzae by CLSI M7-A7 broth microdilution method
[42] = test system: Enterobacteriaceae; assay: Antibacterial activity against ceftazidime-nonsusceptible Enterobacteriaceae by CLSI M7-A7 broth microdilution method
[43] = test system: Klebsiella pneumoniae; assay: Antibacterial activity against ceftazidime-nonsusceptible Klebsiella pneumoniae assessed as resistant isolates by CLSI M7-A7 broth microdilution method
[44] = test system: Morganella morganii; assay: Antibacterial activity against ceftazidime-susceptible Morganella morganii assessed as resistant isolates by CLSI M7-A7 broth microdilution method
[45] = test system: Enterobacteriaceae; assay: Antibacterial activity against ceftazidime-susceptible Enterobacteriaceae assessed as susceptible isolates by CLSI M7-A7 broth microdilution method
[46] = test system: Enterobacter cloacae; assay: Antibacterial activity against ceftazidime-susceptible Enterobacter cloacae by CLSI M7-A7 broth microdilution method
[47] = test system: Haemophilus influenzae; assay: Antibacterial activity against beta lactamase-positive Haemophilus influenzae assessed as susceptible isolates by CLSI M7-A7 broth microdilution method
[48] = test system: Acinetobacter; assay: Antibacterial activity against multidrug-resistant Acinetobacter by CLSI M7-A7 broth microdilution method
[49] = test system: Serratia marcescens; assay: Antibacterial activity against ceftazidime-susceptible Serratia marcescens assessed as resistant isolates by CLSI M7-A7 broth microdilution method
[50] = test system: Haemophilus influenzae; assay: Antibacterial activity against beta lactamase-negative Haemophilus influenzae assessed as resistant isolates by CLSI M7-A7 broth microdilution method

Compound: CC1(C)S[C@@H]2[C@H](NC(=O)[C@H](N)c3ccccc3)C(=O)N2[C@H]1C(=O)O [AMPICILLIN]
- Activity [1]: 3.4%
- Activity [2]: 100%
- MIC [3]: > 32 µg/mL
- MIC50 [3]: > 32 µg/mL
- MIC90 [3]: > 32 µg/mL
- Activity [4]: 0%
- Activity [5]: 66.7%
- Activity [6]: 57%
- MIC50 [7]: 16 µg/mL (≈ 45.8 µM)
- MIC90 [7]: > 32 µg/mL
- Activity [8]: 20%
- MIC50 [9]: > 32 µg/mL
- MIC90 [9]: > 32 µg/mL
- Activity [10]: 72.4%
- MIC [11]: > 32 µg/mL
- MIC50 [11]: > 32 µg/mL
- MIC90 [11]: > 16 µg/mL
- Activity [12]: 0%
- MIC [13]: ≤ 0.25 µg/mL
- MIC50 [13]: ≤ 0.25 µg/mL
- MIC90 [13]: 0.5 µg/mL (≈ 1.43 µM)
- MIC [14]: > 32 µg/mL
- MIC50 [14]: > 32 µg/mL
- MIC90 [14]: > 32 µg/mL
- Activity [15]: 36%
- MIC50 [16]: 32 µg/mL (≈ 91.6 µM)
- MIC90 [16]: > 32 µg/mL
- MIC50 [17]: > 32 µg/mL
- MIC90 [17]: > 32 µg/mL
- Activity [18]: 100%
- Activity [19]: 80%
- Activity [20]: 0%
- Activity [21]: 40.9%
- Activity [22]: 0%
- Activity [23]: 99%
- Activity [24]: 66%
- MIC50 [25]: 4 µg/mL (≈ 11.4 µM)
- MIC90 [25]: > 32 µg/mL
- Activity [26]: 58.3%
- Activity [27]: 8.8%
- Activity [28]: 100%
- MIC50 [29]: 16 µg/mL (≈ 45.8 µM)
- MIC90 [29]: > 32 µg/mL
- Activity [30]: 22.2%
- MIC50 [31]: 32 µg/mL (≈ 91.6 µM)
- MIC90 [31]: > 32 µg/mL
- MIC50 [32]: > 32 µg/mL
- MIC90 [32]: > 32 µg/mL
- MIC [33]: > 32 µg/mL
- MIC50 [33]: > 32 µg/mL
- MIC90 [33]: > 32 µg/mL
- Activity [34]: 100%
- Activity [35]: 97%
- Activity [36]: 0%
- Activity [37]: 27.6%
- Activity [38]: 5.2%
- Activity [39]: 42%
- MIC50 [40]: 1 µg/mL (≈ 2.86 µM)
- MIC90 [40]: > 32 µg/mL
- MIC50 [41]: 32 µg/mL (≈ 91.6 µM)
- MIC90 [41]: > 32 µg/mL
- MIC [42]: > 32 µg/mL
- MIC50 [42]: > 32 µg/mL
- MIC90 [42]: > 32 µg/mL
- Activity [43]: 100%
- Activity [44]: 85.3%
- Activity [45]: 35.2%
- MIC50 [46]: 32 µg/mL (≈ 91.6 µM)
- MIC90 [46]: > 32 µg/mL
- Activity [47]: 2%
- MIC [48]: > 32 µg/mL
- MIC50 [48]: > 32 µg/mL
- Activity [49]: 83.1%
- Activity [50]: 1%
